For orientation: NOAEL means the highest tested level that showed no adverse finding. One may read the inhibition as the change of the read-out against control, counted positive when it falls.

The structures appear in SMILES notation. Values joined by “and” are separate entries in the source; they are usually repeats but may differ in a detail not shown here. Identical values can stand only once.

The text below walks through data of US7326721B2 (Hypnion, Inc., priority 2003, dated 2008).

The nature of data set [1]: Protein binding in human plasma. The class given is in vitro ADME. The method, then:
HY2901 was administered to rats, dogs, and cynomolgus monkeys at a dose of 3 mg/kg orally and intravenously. Plasma samples were collected from all species for pharmacokinetic analysis. […] HY2901 is 75% protein bound in rat plasma and 60% protein bound in human plasma.

Data set [2] is described as follows: Urinary excretion in animal species. The format is in vivo. Particulars: animal species administered HY2901.
Data set [3] concerns Wistar rats. In words: Acetic acid-induced abdominal spasm test in the rat. The format is in vivo. The protocol: The objective of this example was to determine the analgesic activity of HY-2901 (Also referred to herein as Compound 49a) following oral administration. Analgesic activity was assessed abdominal spasm test in the rat and mouse. Analgesic activity is also assessed using the tail clip test in the mouse, tail flick test in the rat, Randall-Selitto test in the rat and comparisons are made with a vehicle control group. Reference compounds ASA (acetylsalicylic acid) and morphine are also included for comparison.
The tail clip and tail flick test provide useful information about the central analgesic activity of the test article. The Randall-Selitto test provides information on the compound's ability to modify a hyperalgesic state and the abdominal spasm test provides information on the peripheral analgesic activity of the test article. The test article is administered by oral gavage, this being the intended clinical route of administration. The dose levels employed are expected to encompass the efficacy dose and provide an adequate safety margin.
All formulations were prepared on each day of dosing. The test article (HY-2901) was formulated in 0.25% (w/v) MC at the highest concentration required. Lower doses were obtained by serial dilution of the highest concentration using 0.25% (w/v) MC. The reference compound, acetylsalicylic acid, was formulated in 0.25% (w/v) MC at the required concentrations. Brewer's yeast was formulated in water for injection at the required concentration. Acetic acid was diluted with water for injection to provide the required concentration for administration.
An adequate number of male Crl:CD-I(ICR)BR mice and Wistar rats were obtained from Charles River (UK) Ltd., Margate, Kent. The mice were approximately 4 weeks of age and weigh between 18 and 22 g on arrival. The rats were approximately 5 weeks of age and weigh between 150 and 170 g on arrival. The age and weight of the animals at the start of the study was documented in the raw data and final report,
Each animal received a single administration of vehicle, test article or reference compound by oral gavage, using a constant dose volume […]. Individual dose volumes were based on individual body weights obtained on the day of dosing.
Forty-five minutes following oral administration each animal received a 1 mL intraperitoneal injection of 1% acetic acid. Animals were immediately placed into individual observation chambers and the number of abdominal spasms elicited over the subsequent 25-minute period was recorded.

In data set [4] the target is T1, CYP 2D6 (Homo sapiens, UniProt P10635).
T1 construct: in a commercially available human microsomal preparation; purchased; host or cells: human microsomal preparation
Briefly: Cytochrome P450 inhibition: CYP 2D6. The class given is in vitro ADME. The note with it: human microsomal preparation. The method, then: (§1) Cytochrome P450 inhibition was studied with HY2901 in vitro. […] In addition, the in vitro rate of metabolism in rat, dog, monkey, and human hepatocyte cultures was determined for HY2901.

The test system of data set [5] is Crl:CD(SD)IGS BR rats. In words: 14-day rat study with recovery. The format is in vivo. The method, then: (§2) The purpose of this study was to evaluate the toxicity of HY2901 when administered via oral gavage to rats for at least 14 days and to assess the reversibility, persistence, or delayed occurrence of any effects after a recovery period of up to 14 days.
(§3) Male and female Crl:CD®(SD)IGS BR rats were assigned to seven groups, four main study groups and three groups for toxicokinetics. Each group received dose preparations containing 0.25% methylcellulose, 400 cps in 200 mM acetate buffer, or 10, 30, or 150 mg of test article/kg of body weight (mg/kg/day) at a dose volume of 5 mL/kg.
(§4) Assessment of toxicity was based on mortality, clinical and ophthalmic observations, body weights, food consumption, clinical pathology, organ weights, and macroscopic and microscopic findings. Blood samples were collected for toxicokinetic evaluation.

A short description of data set [6]: 14-day rat study with recovery. The class given is in vivo. Particulars: both sexes, Crl:CD(SD)IGS BR, rat, in vivo, po. The protocol:
as §2, §3, §4

In data set [7] the target is T2, CYP 1A2 (Homo sapiens, UniProt P05177).
T2 construct: in a commercially available human microsomal preparation; purchased; host or cells: human microsomal preparation
Briefly: Cytochrome P450 inhibition, human microsomal preparation: CYP 1A2. The class given is in vitro ADME. The method, then:
as §1

Data set [8] has as its target Neurokinin, NK3 (NKB) (Homo sapiens, UniProt P29371). In words: Table 12 panel: NK3. The note with it: 1.0E−6, average N=2, read-out: percentage inhibition of specific binding. From the text: (§5) The percentage inhibition (average; N=2) for these receptors is shown below in Table 12.
(§6) Values in Table 12 are expressed as percentage inhibition of specific binding, and these values represent the average of replicate tubes at each of the concentrations tested.

For data set [9], the target named is Angiotensin II, AT1 (h) (Homo sapiens, UniProt P30556). Briefly: Table 12 panel: Angiotensin II, AT1. The note with it: 1.0E−6, average N=2, read-out: percentage inhibition of specific binding.
Text: as §5, §6

Data set [10] concerns the target Histamine, H3 (Homo sapiens, UniProt Q9Y5N1). In words: biochemical. The note with it: read-out: percentage inhibition of specific binding.
For data set [11], the target named is Leukotriene, LTD4 (Homo sapiens, UniProt Q9Y271). Briefly: Table 12 panel: Leukotriene, LTD4. The note with it: 1.0E−6, average N=2, read-out: percentage inhibition of specific binding.
Text: as §5, §6

Data set [12] concerns the target Endothelin, ET-B (h) (Homo sapiens, UniProt P24530). Briefly: Table 12 panel: Endothelin, ET-B. Particulars: 1.0E−6, average N=2, read-out: percentage inhibition of specific binding.
Text: as §5, §6

The subject of data set [13] is Potassium Channel, ATP-Sensitive. Briefly: Table 12 panel: Potassium Channel, ATP-Sensitive. Particulars: 1.0E−6, average N=2. The class given is binding.
Text: as §5, §6

Data set [14] deals with T3, Adrenergic, Alpha 1, Non-selective.
T3 construct: other: Adrenergic, Alpha 1; 1.0E−6; average N=2
In words: Table 12 panel: Adrenergic, Alpha 1. The class given is binding. The note with it: Adrenergic, Alpha 1; 1.0E−6; average N=2.

For data set [15], the target named is Dopamine Transporter (Homo sapiens, UniProt Q01959). In words: Table 12 panel: Dopamine Transporter. Particulars: 1.0E−6, average N=2, read-out: percentage inhibition of specific binding.
Text: as §5, §6

In data set [16] the target is Histamine, H2 (Homo sapiens, UniProt P25021). In words: Table 12 panel: Histamine, H2. The note with it: 1.0E−6, average N=2, read-out: percentage inhibition of specific binding.
Text: as §5, §6

Data set [17] concerns the target Nitric Oxide, NOS (Neuronal-Binding) (Homo sapiens, UniProt P29475). Briefly: Table 12 panel: NOS. Particulars: 1.0E−6, average N=2, read-out: percentage inhibition of specific binding.
Text: as §5, §6

Data set [18] concerns the target Endothelin, ET-A (h) (Homo sapiens, UniProt P25101). In words: Table 12 panel: Endothelin, ET-A. The note with it: 1.0E−6, average N=2, read-out: percentage inhibition of specific binding.
Text: as §5, §6

Sequence of Nitric Oxide, NOS (Neuronal-Binding) (P29475 whole entry): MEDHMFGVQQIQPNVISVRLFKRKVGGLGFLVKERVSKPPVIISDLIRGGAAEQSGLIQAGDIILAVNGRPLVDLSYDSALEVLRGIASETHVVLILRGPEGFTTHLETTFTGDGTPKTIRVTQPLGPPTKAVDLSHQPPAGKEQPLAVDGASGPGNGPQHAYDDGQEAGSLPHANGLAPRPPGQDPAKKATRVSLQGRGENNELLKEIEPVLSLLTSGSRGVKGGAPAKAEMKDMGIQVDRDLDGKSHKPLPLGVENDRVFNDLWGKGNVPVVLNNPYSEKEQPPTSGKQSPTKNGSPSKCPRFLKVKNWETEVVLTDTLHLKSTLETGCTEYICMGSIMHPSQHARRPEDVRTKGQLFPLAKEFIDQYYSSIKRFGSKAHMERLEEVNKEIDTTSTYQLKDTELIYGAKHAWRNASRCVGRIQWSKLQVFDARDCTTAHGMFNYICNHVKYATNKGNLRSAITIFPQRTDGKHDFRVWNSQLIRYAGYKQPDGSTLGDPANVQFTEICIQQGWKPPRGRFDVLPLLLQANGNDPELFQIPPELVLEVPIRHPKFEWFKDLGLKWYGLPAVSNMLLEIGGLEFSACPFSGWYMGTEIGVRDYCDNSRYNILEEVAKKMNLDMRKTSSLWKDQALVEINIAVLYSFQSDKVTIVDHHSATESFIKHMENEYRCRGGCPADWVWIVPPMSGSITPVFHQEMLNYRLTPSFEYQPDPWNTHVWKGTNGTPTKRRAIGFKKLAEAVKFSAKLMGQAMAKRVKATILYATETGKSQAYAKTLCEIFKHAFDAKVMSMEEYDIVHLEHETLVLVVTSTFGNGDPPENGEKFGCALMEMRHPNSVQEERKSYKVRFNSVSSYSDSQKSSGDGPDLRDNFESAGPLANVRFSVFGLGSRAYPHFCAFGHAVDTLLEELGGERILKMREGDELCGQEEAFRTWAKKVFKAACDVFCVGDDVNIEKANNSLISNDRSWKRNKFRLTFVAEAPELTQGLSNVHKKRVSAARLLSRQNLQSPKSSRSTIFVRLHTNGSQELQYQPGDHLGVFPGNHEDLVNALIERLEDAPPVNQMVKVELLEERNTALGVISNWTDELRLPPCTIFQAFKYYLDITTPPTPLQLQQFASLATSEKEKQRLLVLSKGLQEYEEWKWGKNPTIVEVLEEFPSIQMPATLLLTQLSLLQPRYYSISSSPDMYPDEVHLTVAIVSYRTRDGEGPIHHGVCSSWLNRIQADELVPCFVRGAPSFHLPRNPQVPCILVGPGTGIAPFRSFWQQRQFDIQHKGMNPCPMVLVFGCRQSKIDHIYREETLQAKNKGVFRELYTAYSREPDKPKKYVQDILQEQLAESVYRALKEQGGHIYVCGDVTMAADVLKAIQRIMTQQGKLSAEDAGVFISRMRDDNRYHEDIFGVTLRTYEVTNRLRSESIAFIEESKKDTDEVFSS
Sequence of Endothelin, ET-A (h) (P25101 21-427): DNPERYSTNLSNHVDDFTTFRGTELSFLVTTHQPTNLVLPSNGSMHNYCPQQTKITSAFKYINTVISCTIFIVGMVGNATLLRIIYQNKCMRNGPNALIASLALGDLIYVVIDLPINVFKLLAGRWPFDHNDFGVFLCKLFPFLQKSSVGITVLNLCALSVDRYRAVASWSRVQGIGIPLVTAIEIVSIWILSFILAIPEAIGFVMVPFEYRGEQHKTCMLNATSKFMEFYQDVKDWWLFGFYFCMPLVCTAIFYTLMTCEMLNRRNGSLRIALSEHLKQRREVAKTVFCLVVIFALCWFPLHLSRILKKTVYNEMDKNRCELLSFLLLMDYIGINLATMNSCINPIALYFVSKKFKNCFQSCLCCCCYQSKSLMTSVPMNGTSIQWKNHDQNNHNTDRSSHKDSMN
Sequence of Histamine, H2 (P25021 whole entry): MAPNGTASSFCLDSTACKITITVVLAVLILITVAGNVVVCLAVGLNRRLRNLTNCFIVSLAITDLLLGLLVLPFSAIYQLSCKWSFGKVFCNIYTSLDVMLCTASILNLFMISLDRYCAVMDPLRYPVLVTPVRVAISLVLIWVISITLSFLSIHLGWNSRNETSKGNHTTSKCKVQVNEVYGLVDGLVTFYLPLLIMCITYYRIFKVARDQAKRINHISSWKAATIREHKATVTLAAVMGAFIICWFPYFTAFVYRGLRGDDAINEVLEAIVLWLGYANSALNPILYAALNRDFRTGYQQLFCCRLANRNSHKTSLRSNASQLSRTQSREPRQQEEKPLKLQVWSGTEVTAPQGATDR
Sequence of Angiotensin II, AT1 (h) (P30556 whole entry): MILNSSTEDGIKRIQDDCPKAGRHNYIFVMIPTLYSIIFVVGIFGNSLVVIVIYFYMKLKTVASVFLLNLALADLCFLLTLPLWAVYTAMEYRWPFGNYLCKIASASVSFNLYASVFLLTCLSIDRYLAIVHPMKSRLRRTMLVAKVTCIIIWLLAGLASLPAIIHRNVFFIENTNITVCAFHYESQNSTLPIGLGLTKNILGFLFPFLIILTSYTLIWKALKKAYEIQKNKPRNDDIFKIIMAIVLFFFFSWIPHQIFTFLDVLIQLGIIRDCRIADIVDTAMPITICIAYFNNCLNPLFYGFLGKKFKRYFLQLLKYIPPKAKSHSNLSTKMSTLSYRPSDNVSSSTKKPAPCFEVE
T1 sequence (P10635 whole entry): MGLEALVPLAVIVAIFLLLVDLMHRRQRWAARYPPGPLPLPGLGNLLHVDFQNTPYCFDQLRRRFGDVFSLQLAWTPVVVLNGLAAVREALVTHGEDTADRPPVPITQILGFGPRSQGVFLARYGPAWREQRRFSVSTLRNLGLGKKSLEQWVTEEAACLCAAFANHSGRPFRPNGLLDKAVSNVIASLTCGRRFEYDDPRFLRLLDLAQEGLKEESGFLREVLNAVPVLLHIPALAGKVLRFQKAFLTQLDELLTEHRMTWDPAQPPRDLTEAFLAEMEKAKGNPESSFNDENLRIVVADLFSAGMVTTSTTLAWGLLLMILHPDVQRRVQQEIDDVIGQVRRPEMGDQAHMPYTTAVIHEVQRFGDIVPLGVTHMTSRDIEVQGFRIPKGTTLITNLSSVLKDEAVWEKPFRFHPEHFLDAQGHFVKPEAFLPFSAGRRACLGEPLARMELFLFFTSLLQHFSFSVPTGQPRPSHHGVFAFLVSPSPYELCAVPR
T2 sequence (P05177 whole entry): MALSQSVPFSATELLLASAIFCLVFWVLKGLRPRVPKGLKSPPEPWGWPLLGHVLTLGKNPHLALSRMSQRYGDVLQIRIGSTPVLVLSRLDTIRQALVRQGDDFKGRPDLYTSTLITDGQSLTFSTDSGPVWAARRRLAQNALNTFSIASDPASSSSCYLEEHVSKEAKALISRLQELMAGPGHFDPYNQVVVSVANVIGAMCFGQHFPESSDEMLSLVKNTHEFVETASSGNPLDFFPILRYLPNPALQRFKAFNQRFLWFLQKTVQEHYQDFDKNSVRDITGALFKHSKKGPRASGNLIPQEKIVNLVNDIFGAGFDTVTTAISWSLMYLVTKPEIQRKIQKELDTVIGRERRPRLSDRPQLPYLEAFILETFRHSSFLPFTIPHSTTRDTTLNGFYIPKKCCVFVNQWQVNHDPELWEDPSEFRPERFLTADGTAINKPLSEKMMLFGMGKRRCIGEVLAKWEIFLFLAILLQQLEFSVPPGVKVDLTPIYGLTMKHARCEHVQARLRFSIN
Sequence of Neurokinin, NK3 (NKB) (P29371 whole entry): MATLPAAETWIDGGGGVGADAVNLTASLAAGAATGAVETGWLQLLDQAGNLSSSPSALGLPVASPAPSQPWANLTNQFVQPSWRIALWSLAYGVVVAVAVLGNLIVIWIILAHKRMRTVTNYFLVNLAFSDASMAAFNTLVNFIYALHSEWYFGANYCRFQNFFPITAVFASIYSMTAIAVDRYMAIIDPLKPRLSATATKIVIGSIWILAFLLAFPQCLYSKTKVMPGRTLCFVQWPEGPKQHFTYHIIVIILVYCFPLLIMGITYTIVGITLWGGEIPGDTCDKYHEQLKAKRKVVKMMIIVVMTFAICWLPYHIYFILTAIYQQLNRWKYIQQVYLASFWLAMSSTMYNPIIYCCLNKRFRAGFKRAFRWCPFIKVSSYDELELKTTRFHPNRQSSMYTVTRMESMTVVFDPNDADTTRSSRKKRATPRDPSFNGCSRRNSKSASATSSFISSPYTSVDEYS
Sequence of Dopamine Transporter (Q01959 whole entry): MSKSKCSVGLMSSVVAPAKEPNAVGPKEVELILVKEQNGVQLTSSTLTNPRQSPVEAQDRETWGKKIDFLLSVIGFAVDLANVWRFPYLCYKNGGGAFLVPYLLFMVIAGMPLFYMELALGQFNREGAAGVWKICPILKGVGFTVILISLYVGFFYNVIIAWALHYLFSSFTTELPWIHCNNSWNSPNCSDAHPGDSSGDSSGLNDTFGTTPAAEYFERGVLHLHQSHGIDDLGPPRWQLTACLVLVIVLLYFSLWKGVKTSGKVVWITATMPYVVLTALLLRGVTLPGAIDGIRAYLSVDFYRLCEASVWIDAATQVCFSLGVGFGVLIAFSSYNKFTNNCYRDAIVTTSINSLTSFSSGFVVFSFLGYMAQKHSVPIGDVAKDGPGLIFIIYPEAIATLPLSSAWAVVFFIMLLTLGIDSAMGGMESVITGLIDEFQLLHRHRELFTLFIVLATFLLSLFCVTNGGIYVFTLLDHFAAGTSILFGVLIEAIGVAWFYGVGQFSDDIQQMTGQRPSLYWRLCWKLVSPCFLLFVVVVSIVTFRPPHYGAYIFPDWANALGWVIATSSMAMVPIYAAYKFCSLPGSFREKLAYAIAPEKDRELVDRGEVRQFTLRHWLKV
Sequence of Leukotriene, LTD4 (Q9Y271 whole entry): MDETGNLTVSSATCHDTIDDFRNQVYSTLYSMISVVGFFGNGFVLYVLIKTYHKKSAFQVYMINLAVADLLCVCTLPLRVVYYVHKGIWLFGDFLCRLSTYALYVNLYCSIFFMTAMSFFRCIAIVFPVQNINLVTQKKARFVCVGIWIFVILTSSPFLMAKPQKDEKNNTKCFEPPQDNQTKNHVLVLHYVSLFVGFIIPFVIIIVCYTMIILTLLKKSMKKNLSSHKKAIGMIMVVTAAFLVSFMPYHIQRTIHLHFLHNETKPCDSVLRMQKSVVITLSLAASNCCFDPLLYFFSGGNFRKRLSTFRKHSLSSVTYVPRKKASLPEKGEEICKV

In the case of `CC(C)(CN1CCC(=C2c3ccc(F)cc3COc3ccccc32)CC1)C(=O)O` [Compound 49a], the protein bound in data set [1] is reported as 60%. Besides, the “unchanged drug and metabolites in urine” value in data set [2] was “has been found in the urine”. Further, the “Group mean (=sd) number pf abdominal spasms recorded in a 25-minute period” value in data set [3] (oral 3 mg/kg) is listed as 31 ± 9.0; in [3] (oral 10 mg/kg), 25 ± 16.4; in data set [3] (oral 30 mg/kg), 17 ± 13.8. Further, the “Number of abdominal spasms recorded in a 25-minute period, individual animal data” value was 42 and 17 and 26 and 29 and 31 and 39 in [3] (oral 3 mg/kg, listed as HY-2901, 3 mg/kg); 57 and 23 and 20 and 24 and 19 and 9 in [3] (oral 10 mg/kg, listed as HY-2901, 10 mg/kg); 37 and 20 and 23 and 1 (2×) and 18 in [3] (oral 30 mg/kg, listed as HY-2901, 30 mg/kg). The “inhibition of CYP 2D6 activity” value in data set [4] is “did not inhibit”. The mean body weight result in [5] (150 mg/kg/day males) is “depression in mean body weight of the 150 mg/kg/day males”. Further, the “mean weights of thymus, lung, and heart” value in data set [5] (150 mg/kg/day males, terminal sacrifice) was “significantly low relative to brain weight”. The food consumption entry in [5] (150 mg/kg/day, Week 1) is reported as “depression in food consumption in 150 mg/kg/day rats in Week 1”. For the same compound, the “expected pharmacological effects (clinical signs)” value in data set [5] (10, 30, or 150 mg/kg/day) was “hypoactivity, ataxia, and the appearance of sleep, were commonly observed”. The unscheduled deaths result in data set [5] (10, 30, or 150 mg/kg/day, 14 days) is given as “largely restricted to the 150 mg/kg/day groups”. Besides, the ophthalmic observations result in data set [5] (all groups) is listed as “No ophthalmic lesions”. Also, in [5] (rat, in vivo), the clinical pathology findings result is listed as “unrelated to treatment”. Further, the “increases in Cmax and AUC(0-t) with dose” value in [5] (rat, in vivo) is listed as “greater than dose proportional”. Moreover, the “accumulation after multiple dosing” value in data set [5] (rats) is “Minimum accumulation”. Moreover, the “macroscopic and microscopic findings” value in [5] (terminal and recovery sacrifice rats) was “No treatment-related macroscopic observations or microscopic toxic effects”. The NOAEL at 14 days in data set [6] worked out at 30 mg/kg/day. The “inhibition of CYP 1A2 activity” value in [7] is given as “did not inhibit”.

For the compound `CC(CC(=O)O)N1CCC(=C2c3ccc(F)cc3COc3ccccc32)CC1` (centres unmarked) [Compound 37], the inhibition at 1 µM is -0.23% in [8]; 12% in data set [9]; 5.11% in data set [10]; -20.1% in data set [11]; -6.51% in [12]; 2.14% in [15]. For the same compound, the inhibition at 1 µM in data set [16] is 0.8%; in data set [17] it was 17.2%; in data set [18], 10.2%. In addition, the entries for the “percentage inhibition of specific binding” value in data set [13] and in data set [14] were 26.16% and 6.56%, respectively.
